PubChem BioAssay (NCI)
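Briefly, cells in 96-well plates were exposed to five compound concentrations for 48 h, and endpoints were estimated by linear interpolation. GI50: concentration for 50% inhibition of growth. Definition used: TGI = concentration required for complete inhibition of growth.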

What was measured:
Test in all cases: NCI-60 cell line screen, 48 h
KM12 colon = tested on: KM12 colon
OVCAR-8 ovarian = tested on: OVCAR-8 ovarian
UACC-62 melanoma = tested on: UACC-62 melanoma
SF-539 CNS = tested on: SF-539 CNS
U251 CNS = tested on: U251 CNS
RPMI-8226 leukemia = tested on: RPMI-8226 leukemia
LOX IMVI melanoma = tested on: LOX IMVI melanoma
SK-MEL-5 melanoma = tested on: SK-MEL-5 melanoma
NCI-H460 lung = tested on: NCI-H460 lung
HCT-15 colon = tested on: HCT-15 colon

SMILES	GI50 (KM12 colon) [µM]	TGI (KM12 colon) [µM]	GI50 (OVCAR-8 ovarian) [µM]	TGI (OVCAR-8 ovarian) [µM]	GI50 (UACC-62 melanoma) [µM]	GI50 (SF-539 CNS) [µM]	TGI (SF-539 CNS) [µM]	GI50 (U251 CNS) [µM]	TGI (U251 CNS) [µM]	GI50 (RPMI-8226 leukemia) [µM]	TGI (RPMI-8226 leukemia) [µM]	GI50 (LOX IMVI melanoma) [µM]	TGI (LOX IMVI melanoma) [µM]	GI50 (SK-MEL-5 melanoma) [µM]	TGI (SK-MEL-5 melanoma) [µM]	GI50 (NCI-H460 lung) [µM]	GI50 (HCT-15 colon) [µM]	TGI (HCT-15 colon) [µM]	TGI (UACC-62 melanoma) [µM]	TGI (NCI-H460 lung) [µM]
COc1ccc2c(c1[N+](=O)[O-])CC[C@@H]1[C@@H]2CC[C@]2(C)C(=O)CC[C@@H]12	> 1000	> 1000	462	> 1000	387	300	> 890	476	> 1000	> 1000	> 1000	434	> 1000	502	> 1000	> 756	> 1000	> 1000		
Clc1cccc(-c2cc(-c3ccc4c(c3)OCCO4)[nH]n2)c1	1.01	38.5	6.74	53.3	2	6.31	36.1	6.83	43	6.38	250	4.43	39.4	5.9	39.1	1.01	1.11	33.5	44.8	31.8
CCCCCOC(=O)c1c(C)[nH]c(/C=C2\N=C(c3ccc[nH]3)C=C2OC)c1C	0.0301	1.54	0.0373	1.18	0.0213	0.0306	0.725	0.0219	0.461	0.028	0.24	0.0115	0.025	0.0234	0.0726	0.0309	0.0264	1.4	0.0491	1.47
CSC(=Nc1ccc([N+](=O)[O-])cc1C#N)NC(=O)c1ccccc1		> 100		> 100			> 100		> 100		> 100		> 100		> 100			> 100	> 100	> 100
COc1ccc2c(c1)c(-c1ccc(-c3cn(C)c4ccc(OC)cc34)s1)cn2C	> 100	> 100	> 100	> 100	> 100	> 100	> 100	> 100	> 100	> 100	> 100	> 100	> 100	> 100	> 100	> 100	> 100	> 100	> 100	> 100
Cc1cc2c(cc1Cl)SC(=Nc1ccc(Cl)cc1)N(S(=O)(=O)c1ccc(Br)s1)S2(=O)=O	16.2	37.7	18.8	46.1	12	2.01	9.93	8.57	21.4	3.7	21.5	9.26	24.3	13.7	43.3	35.2	11.9	29.7	25.3	> 100
